Experimental data published in US9980953B2, “Combined composition for preventing or treating cancer comprising a benzophenone thiazole derivatives as a VDA and topoisomerase inhibitor” (CHONG KUN DANG PHARMACEUTICAL CORP., priority 2016, dated 2018).

Columns and labels:
[1] = tested on: Colo205 xenograft; experiment: Anti-cancer effect in a Colo205 xenograft mouse model; type: in vivo, BALB/c-nu/nu male mice; conditions: irinotecan 20 mg/kg once per 4 days injection; for size of tumor compared to administration group of an excipient: formula 1 4 mg/kg every day oral, during administration period (10 weeks); for dead mice: observed for 85 days, formula 1 4 mg/kg daily oral
Source text: A human colorectal cancer cell line, Colo205 was purchased from ATCC (USA). The Colo205 cell line was maintained with RPMI1640 (Gibco, USA) including 10% fetal bovine serum (FBS; Gibco, Grand Island, N.Y., USA) and 1% antibiotics (Gibco, USA).
The human colorectal carcinoma, Colo205 cell was subcutaneously administered in BALB/c-nu/nu male mice (5×10^6 cell/head), and after grouping in order to making an average size of tumor 165˜167 mm^3, used in experiments.
A compound of formula 1 was prepared by the preparation method disclosed in International Laid-open Patent Publication WO 2009-119980, and prepared at 0.4 mg/ml concentration by dissolving with distilled water.
Irinotecan (Boryung, Korea) was prepared at 2 mg/ml concentration by diluting with 5% glucose saline solution. The solution to be used was prepared on the day of use, and remained solution was discarded.
The anti-cancer effect of the compound of formula 1 and irinotecan was estimated in the Colo205 xenograft model. Experimental groups were divided into the following administration groups. • Control group: vehicle • Single administration group of the compound of formula 1: the compound of formula 1 (4 mg/kg, every day, oral) • Single administration group of irinotecan: irinotecan (20 mg/kg, once per 4 days, injection) • Coadministration group: the compound of formula 1 (4 mg/kg, every day, oral), irinotecan (20 mg/kg, once per 4 days, injection)
(§1) All the experimental groups were orally and intraperitoneally administered for 10 weeks. Toxicity was observed by measuring weight of mice, and the growth of tumor was measured using calipers during experimental period. The volume of tumor was calculated according to the following calculation formula. tumor volume=(length×width^2)/2
The data of size of tumor, regression of tumor, and body weight changes was tested using Bartlett's test at significance level α=0.05, and as a result of the test, data having no significance was tested using one-way analysis of variance at significance level α=0.05, and data having significance was tested using Kruskal-Wallis test at significance level α=0.05.
Statistical analysis between each group was performed using GraphPad PRISM® Version 5.0 (GraphPad Software, USA).
Vehicle administration group was euthanized at the day 43 because cancer became too big.

[2] = tested on: HCT116 xenograft; experiment: Anti-cancer effect in a HCT116 xenograft mouse model; type: in vivo, Athymic nude mouse (Hsd:Athymic Nude-Foxn1nu) male mice; conditions: formula 1 5 mg/kg once a week injection, irinotecan 20 mg/kg once per 4 days injection, intraperitoneal, 4 weeks
Description: A human colorectal cancer cell line, HCT116 was purchased from ATCC (USA). The HCT116 cell line was maintained with RPMI1640 (Gibco, USA) including 10% fetal bovine serum (FBS; Gibco, USA).
The human colorectal carcinoma, HCT116 cell was subcutaneously administered in Athymic nude mouse (Hsd:Athymic Nude-Foxn1^nu) male mice (5×10^6 cell/head), and used in experiments when the size of tumor became 150-200 mm^3.
A compound of formula 1 was prepared by the preparation method disclosed in International Laid-open Patent Publication WO 2009-119980, and prepared at 0.5 mg/ml concentration by dissolving with 0.9% saline solution.
Irinotecan (Jeilpharm, Korea) was prepared at 2 mg/ml concentration by diluting with 5% dextrose solution.
The anti-cancer effect of the compound of formula 1 and irinotecan was estimated in the HCT116 xenograft model. […]
as §1, with “were” for “were orally and”, “4” for “10”, “volume=(length×width^2)/2 […]” for “volume=(length×width^2)/2”

Row | SMILES | size of tumor compared to administration group of an excipient [1] | dead mice [1] | size of tumor compared to administration group of an excipient [2]
1 | COc1cc(C(=O)c2ccc(-c3csc(NC(=O)[C@@H](N)C(C)C)n3)cc2-n2cncn2)cc(OC)c1OC [compound of formula 1, (S)-N-(4-(3-(1H-1,2,4-triazol-1-yl) -4-(3,4,5-trimethoxybenzoyl)phenyl)thiazol-2-yl)-2-amino-3-methylbutanamide] | significantly decreased | 8 mice | significantly decreased
2 | CCc1c2c(nc3ccc(OC(=O)N4CCC(N5CCCCC5)CC4)cc13)-c1cc3c(c(=O)n1C2)COC(=O)[C@]3(O)CC [irinotecan] | significantly decreased | no dead subject | significantly decreased
